From US20040265880A1, “Genomic and proteomic approaches for the development of cell culture medium” (Sigma-Aldrich Co., priority 2003, published 2004)
Entries after “also recorded” stand apart in the source; their conditions may differ.

Experiments:
HEK-293 cells = assay: Resazurin high throughput proliferation assay, HEK-293; type: cell-based, human; conditions: for effect on HEK-293 proliferation (RFU, resazurin): versus base medium with 1% FBS, each ligand at three concentrations
Protocol: Resazurin is a metabolic dye which is converted to a fluorescent product. The greater the amount of the fluorescent product that is generated, the more metabolism, which directly correlates with cell number.
In this assay, resazurin was added to HEK-293 cells plated in each well of a 24-well assay plate containing a test medium containing one of the 16 ligands corresponding to the positive growth factors/cytokines and incubated at 37° C. After a 30 minute incubation, the plate was analyzed on a standard fluorescence plate reader. A higher RFU value from the plate reader translates to a higher cell density in the wells.
Briefly, the 16 ligands corresponding to positive growth factor/cytokine receptors were tested in the resazurin assay, each ligand at three different concentrations. The graphical representations of the RFU values observed for each factor, shown in FIGS. 3 and 4, include the base medium (with 1% FBS) shown as the pink line. The other 3 lines on each graph represent the three (3) concentrations of growth factor tested in the assay. […] Finally, some factors had no effect on the proliferation of the HEK-293 culture (FIG. 3A-3D).
(§1) Cells were plated in each well of a 24-well tissue culture treated plate containing 1 ml of a base medium. The base medium contained the lowest amount of FBS required to maintain approximately half-maximal growth of the given cell type. Test conditions were performed in triplicate, with each test compound added to the base medium at three different concentrations. The cells were allowed to grow until they reached approximately 33% confluent. At this point, 100 μl of the resazurin solution from a resazurin based in vitro toxicology kit (Sigma-Aldrich Co., Product No. TOX-8) was added to each well. After sufficient incubation time to convert some of the resazurin, the fluorescence was measured on a HTS 7000 Plus BioAssay Reader (Perkin-Elmer, Boston, Mass.). Readings were taken once a day until the culture was confluent (typically about 4 days). A plate with base medium only (no cells) was used as a blank and subtracted from the RFU reading to establish the final RFU values.

WI-38 cells = assay: Proliferation assay (resazurin), WI-38; type: cell-based, human; conditions: single factor added to base medium
From the text: In order to test the possibility of using the method as applied to HEK-293 cells to identify pathways in other cell lines, the normal human fibroblast, WI-38 was chosen. These cells are typically grown in a base medium containing anywhere from 3-10% FBS.
Of the initial 17 receptors gleaned from the microarray, 12 ligands were chosen for testing. These ligands were chosen in the same way as the ligands for the HEK-293 cells, based on signal versus controls as well as based on knowledge of the various factors.
Signaling within a cell for increased growth can be stimulated in a variety of different ways. Combinations of the 4 chosen factors as listed above we added to cell culture medium to determine if the addition of more than 1 of the positive ligands would produce an increased amount of proliferation, or if the ligands would all stimulate the same downstream pathways, leading to no added benefit. This method allowed for the formulation of cell culture medium that it had not been possible to formulate prior to these assays.
as §1

CHO-AP cells [1] = assay: Proliferation assay, CHO-AP; type: cell-based, Chinese hamster; conditions: suspension culture in serum-free CHO medium
Protocol: (§2) In order to further test the possibility of using the method as applied to HEK-293 cells to identify pathways in other cell lines, Chinese hamster ovary (CHO) cells were run on a microarray. Cells from the CHO-AP line produce alkaline phosphatase (AP). These cells are grown in a suspension culture in a serum-free CHO medium (Sigma-Aldrich Co., Product No. C5467).
Although the cDNA array from Takara is designed with human sequences, the array was probed using cDNA made from mRNA from the CHO cells. This attempt generated 22 positive receptors, of which 16 were tested (Table 6).
as §1, with “The cells were allowed to grow until they reached approximately 33% confluent. At this point, 100 μl of the resazurin solution from a resazurin based in vitro toxicology kit (Sigma-Aldrich Co., Product No. TOX-8) was added to each well.” left out

CHO-AP cells [2] = assay: Alkaline phosphatase production assay, CHO-AP; type: cell-based, Chinese hamster; conditions: suspension culture in serum-free CHO medium
Protocol: as §2
On day 7 of the assay, the contents of each well were collected into 1.5 ml microfuge tubes. The cell suspensions were centrifuged at 16,000 rpm for five minutes. The supernatants were collected in 2 ml cryovials and the cell pellets were discarded. Each supernatant was diluted 1:10 and then assayed for the presence of Alkaline Phosphatase using the Alkaline Phosphatase Reporter Gene Assay Kit, Fluorescence (Product AP-F).

CCCCC/C=C\C/C=C\C/C=C\C/C=C\CCCC(=O)O [arachidonic acid, reference compound]
effect on proliferation of HEK-293 cells (PKC pathway stimulation, Example 4) (HEK-293 cells; FIG. 10): positive effect

basic fibroblast growth factor [bFGF]
effect on HEK-293 proliferation (RFU, resazurin) (HEK-293 cells): significant effect
effect on proliferation of WI-38 cells (RFU) (WI-38 cells): significant increased proliferation
effect on proliferation of WI-38 cells (RFU) (WI-38 cells; listed as basic fibroblast growth factor): positive effects

epidermal growth factor [EGF, growth factor, ligand of EGF receptor]
effect on HEK-293 proliferation (RFU, resazurin) (HEK-293 cells): significant effect

interleukin-1 [IL-1]
effect on proliferation of WI-38 cells (RFU) (WI-38 cells): significant increased proliferation
effect on proliferation of WI-38 cells (RFU) (WI-38 cells; listed as interleukin-1): positive effects
effect on proliferation of CHO-AP cells (CHO-AP cells [1]): positive effects
productivity of alkaline phosphatase by CHO-AP cells (CHO-AP cells [2]): increased the productivity; also recorded: positive effects

platelet-derived growth factor [PDGF]
effect on proliferation of WI-38 cells (RFU) (WI-38 cells): significant increased proliferation
effect on proliferation of WI-38 cells (RFU) (WI-38 cells; listed as platelet-derived growth factor AB): positive effects

stromal cell-derived factor 1a [SDF1α]
effect on HEK-293 proliferation (RFU, resazurin) (HEK-293 cells): significant effect
effect on proliferation of WI-38 cells (RFU) (WI-38 cells): significant increased proliferation
effect on proliferation of WI-38 cells (RFU) (WI-38 cells; listed as stromal cell-derived factor 1 a): positive effects
